Several values for one entry are separate records, joined by “and”; a condition that tells them apart may be missing. Equal values may be shown once. Toxic doses and inconclusive results are not listed.
Test system: AKR/Lw mice, AKR lymphoma ip, median survival T/C
Assay: NCI In Vivo Anticancer Drug Screen. Data for tumor model Lymphoma AKR (Transplanted) (intraperitoneal) in AKR/Lw mice
Settings: endpoint: median survival time, higher = longer survival
Experimental: The antitumor activity of compounds was measured in mice bearing transplantable tumors. Survival or tumor size were measured and the results are expressed as the measurement made in the treated group (T) divided by the measurement made in the vehicle treated control group (C). The tumor model used in this assay is Lymphoma AKR (Transplanted) (intraperitoneal) in AKR/Lw mice

[1] = dose: 10.0 mg/kg/injection, schedule: Q01DX001 (ip), vehicle: saline
[2] = dose: 20.0 mg/kg/injection, schedule: Q01DX001 (ip), vehicle: saline
[3] = dose: 100.0 mg/kg/injection, schedule: Q01DX001 (ip), vehicle: Klucel (hydroxypropylcellulose) (HPC)
[4] = dose: 200.0 mg/kg/injection, schedule: Q01DX001 (ip), vehicle: Klucel (hydroxypropylcellulose) (HPC)
[5] = dose: 400.0 mg/kg/injection, schedule: Q01DX001 (ip), vehicle: Klucel (hydroxypropylcellulose) (HPC)
[6] = dose: 100.0 mg/kg/injection, schedule: Q04DX003 (ip), vehicle: Klucel (hydroxypropylcellulose) (HPC)
[7] = dose: 200.0 mg/kg/injection, schedule: Q04DX003 (ip), vehicle: Klucel (hydroxypropylcellulose) (HPC)
[8] = dose: 100.0 mg/kg/injection, schedule: Q01DX001 (ip), vehicle: saline
[9] = dose: 200.0 mg/kg/injection, schedule: Q01DX001 (ip), vehicle: saline
[10] = dose: 400.0 mg/kg/injection, schedule: Q01DX001 (ip), vehicle: saline

## O=c1[nH]cc(F)c(=O)[nH]1
dose: 1.25 mg/kg/injection, schedule: Q01DX005 (ip), vehicle: saline
  T/C: 152 % of control
dose: 1.25 mg/kg/injection, schedule: Q03HX032 (ip), vehicle: saline
  T/C: 118 % of control
dose: 2.5 mg/kg/injection, schedule: Q01DX005 (ip), vehicle: saline
  T/C: 114 % of control
dose: 2.5 mg/kg/injection, schedule: Q01DX015 (ip), vehicle: saline
  T/C: 113 % of control
dose: 3.1 mg/kg/injection, schedule: Q04DX003 (ip), vehicle: saline
  T/C: 123 % of control
dose: 5.0 mg/kg/injection, schedule: Q01DX001 (ip), vehicle: saline
  T/C: 102 % of control
dose: 5.0 mg/kg/injection, schedule: Q01DX009 (ip), vehicle: saline
  T/C: 100 % of control and 106 % of control
dose: 5.0 mg/kg/injection, schedule: Q01DX015 (ip), vehicle: saline
  T/C: 108 % of control
dose: 5.0 mg/kg/injection, schedule: Q04DX003 (ip), vehicle: saline
  T/C: 97 % of control
dose: 5.0 mg/kg/injection, schedule: Q04DX004 (ip), vehicle: saline
  T/C: 115 % of control
dose: 5.0 mg/kg/injection, schedule: Q##DX003 (ip), vehicle: saline
  T/C: 97 % of control
dose: 6.2 mg/kg/injection, schedule: Q01DX001 (ip), vehicle: saline
  T/C: 104 % of control
dose: 6.2 mg/kg/injection, schedule: Q04DX003 (ip), vehicle: saline
  T/C: 113 % of control
dose: 7.5 mg/kg/injection, schedule: Q01DX009 (ip), vehicle: saline
  T/C: 105 % of control
dose: 9.0 mg/kg/injection, schedule: Q04DX003 (ip), vehicle: saline
  T/C: 112 % of control
[1]
  T/C: 94 % of control
dose: 10.0 mg/kg/injection, schedule: Q01DX009 (ip), vehicle: saline with Tween-80
  T/C: 118 % of control
dose: 10.0 mg/kg/injection, schedule: Q01DX015 (ip), vehicle: saline
  T/C: 180 % of control
dose: 10.0 mg/kg/injection, schedule: Q04DX003 (ip), vehicle: saline
  T/C: 168 % of control
dose: 10.0 mg/kg/injection, schedule: Q##DX003 (ip), vehicle: saline
  T/C: 168 % of control
dose: 12.5 mg/kg/injection, schedule: Q01DX001 (ip), vehicle: saline
  T/C: 100 % of control and 121 % of control
dose: 15.0 mg/kg/injection, schedule: Q01DX009 (ip), vehicle: saline
  T/C: 113 % of control
dose: 15.0 mg/kg/injection, schedule: Q01DX015 (ip), vehicle: saline
  T/C: 150 % of control and 177 % of control
dose: 15.0 mg/kg/injection, schedule: Q04DX004 (ip), vehicle: saline
  T/C: 113 % of control
dose: 18.0 mg/kg/injection, schedule: Q04DX003 (ip), vehicle: water
  T/C: 98 % of control
[2]
  T/C: 105 % of control
dose: 20.0 mg/kg/injection, schedule: Q01DX005 (ip), vehicle: saline
  T/C: 161 % of control
dose: 20.0 mg/kg/injection, schedule: Q01DX009 (ip), vehicle: saline with Tween-80
  T/C: 122 % of control
dose: 20.0 mg/kg/injection, schedule: Q01DX015 (ip), vehicle: saline
  T/C: 167 % of control
dose: 20.0 mg/kg/injection, schedule: Q03HX024 (ip), vehicle: saline
  T/C: 95 % of control
dose: 20.0 mg/kg/injection, schedule: Q04DX003 (ip), vehicle: saline
  T/C: 107 % of control
dose: 20.0 mg/kg/injection, schedule: Q##DX003 (ip), vehicle: saline
  T/C: 107 % of control
dose: 24.0 mg/kg/injection, schedule: Q04DX003 (ip), vehicle: water
  T/C: 119 % of control
dose: 25.0 mg/kg/injection, schedule: Q01DX001 (ip), vehicle: saline
  T/C: 109 % of control and 116 % of control
dose: 30.0 mg/kg/injection, schedule: Q01DX005 (ip), vehicle: saline
  T/C: 161 % of control
dose: 30.0 mg/kg/injection, schedule: Q01DX009 (ip), vehicle: saline
  T/C: 177 % of control
dose: 30.0 mg/kg/injection, schedule: Q04DX004 (ip), vehicle: saline
  T/C: 107 % of control
dose: 36.0 mg/kg/injection, schedule: Q04DX003 (ip), vehicle: water
  T/C: 163 % of control
dose: 40.0 mg/kg/injection, schedule: Q01DX009 (ip), vehicle: saline with Tween-80
  T/C: 86 % of control
dose: 40.0 mg/kg/injection, schedule: Q04DX004 (ip), vehicle: saline
  T/C: 168 % of control
dose: 40.0 mg/kg/injection, schedule: Q##DX003 (ip), vehicle: saline
  T/C: 97 % of control
dose: 45.0 mg/kg/injection, schedule: Q04DX004 (ip), vehicle: saline
  T/C: 123 % of control and 291 % of control
dose: 60.0 mg/kg/injection, schedule: Q04DX003 (ip), vehicle: saline
  T/C: 89 % of control
dose: 60.0 mg/kg/injection, schedule: Q04DX004 (ip), vehicle: saline
  T/C: 157 % of control and 352 % of control
dose: 60.0 mg/kg/injection, schedule: Q04DX008 (ip), vehicle: saline
  T/C: 108 % of control
dose: 75.0 mg/kg/injection, schedule: Q01DX001 (ip), vehicle: saline
  T/C: 150 % of control and 166 % of control
dose: 75.0 mg/kg/injection, schedule: Q04DX003 (ip), vehicle: saline
  T/C: 260 % of control
dose: 75.0 mg/kg/injection, schedule: Q04DX004 (ip), vehicle: saline
  T/C: 88 % of control
dose: 80.0 mg/kg/injection, schedule: Q04DX003 (ip), vehicle: saline
  T/C: 99 % of control
dose: 150.0 mg/kg/injection, schedule: Q04DX003 (ip), vehicle: saline
  T/C: 105 % of control
dose: 300.0 mg/kg/injection, schedule: Q04DX003 (ip), vehicle: saline
  T/C: 88 % of control

## CC(C)(C)/[N+]([O-])=[N+](\[O-])C(C)(C)C (tested in a mixture with another compound)
[3]
  T/C: 95 % of control
[4]
  T/C: 97 % of control
[5]
  T/C: 100 % of control

## Cc1ccc(N2C(=O)CC(Sc3ccccc3N)C2=O)cc1 (stereo not drawn)
dose: 50.0 mg/kg/injection, schedule: Q04DX003 (ip), vehicle: Klucel (hydroxypropylcellulose) (HPC)
  T/C: 100 % of control
[3]
  T/C: 100 % of control
[6]
  T/C: 90 % of control
[7]
  T/C: 90 % of control

## O=C(COc1ccc(Cl)c(Cl)c1)N(Cc1ccccc1)Cc1cccnc1
[3]
  T/C: 110 % of control
[4]
  T/C: 108 % of control
[5]
  T/C: 102 % of control

## Cc1ccc(S(=O)(=O)Nc2ccccc2-c2nc3c(Cl)ccc(Cl)c3c(=O)o2)cc1
[3]
  T/C: 96 % of control
[6]
  T/C: 90 % of control
[4]
  T/C: 103 % of control
[7]
  T/C: 90 % of control
[5]
  T/C: 93 % of control

## c1ccc2c(c1)CNC2
[8]
  T/C: 97 % of control
[9]
  T/C: 123 % of control
[10]
  T/C: 111 % of control

## CC[N+]1=NC2CCCC(C2)C1 (stereo not drawn)
[8]
  T/C: 101 % of control
[9]
  T/C: 106 % of control

## CCCCCCCCCCCCCCCC(=O)N(CCC#N)CCCCCCCCCN(CCC#N)C(=O)CCCCCCCCCCCCCCC
[8]
  T/C: 116 % of control
[9]
  T/C: 94 % of control

## CC12CCCC(=O)C1CC/C(=C\c1ccco1)C2=O (stereo not drawn)
[8]
  T/C: 109 % of control
[9]
  T/C: 100 % of control
[10]
  T/C: 100 % of control

## O=C(/C=C/C(=O)Oc1ccc(Cl)cc1)Oc1ccc(Cl)cc1
[3]
  T/C: 92 % of control
[4]
  T/C: 89 % of control
[5]
  T/C: 107 % of control

## C1CCN2CC3CC(CN4CCCCC34)C2C1 (stereo not drawn)
[1]
  T/C: 100 % of control
[2]
  T/C: 100 % of control
dose: 40.0 mg/kg/injection, schedule: Q01DX001 (ip), vehicle: saline
  T/C: 100 % of control

## O=C(O)c1ccc(SSc2ccc(C(=O)O)cn2)nc1
dose: 12.5 mg/kg/injection, schedule: Q01DX009 (ip), vehicle: Klucel (hydroxypropylcellulose) (HPC)
  T/C: 100 % of control
dose: 25.0 mg/kg/injection, schedule: Q01DX009 (ip), vehicle: Klucel (hydroxypropylcellulose) (HPC)
  T/C: 92 % of control
dose: 50.0 mg/kg/injection, schedule: Q01DX009 (ip), vehicle: Klucel (hydroxypropylcellulose) (HPC)
  T/C: 102 % of control
[3]
  T/C: 95 % of control and 102 % of control
[4]
  T/C: 90 % of control and 92 % of control
[5]
  T/C: 95 % of control and 97 % of control
